We go through ten compounds from US20100256333A1, “Peptide-Based Beta Turn Mimetics” (UNIVERSITY OF MANITOBA, priority 2009, published 2010).

Holding throughout (format): physicochemical
Data set [1] in a line: Thermodynamics of isomerization, Kt/c versus temperature, Van't Hoff plots. The settings on record: D2O; for ΔG° (298K) of isomerization: in kcal/mol; for ΔH° of isomerization / ΔS° of isomerization: Van't Hoff plots. Here is the method:
Thermodynamics The effects of temperature on the values Kt/c=(kct/ktc) for each compound were measured directly by NMR spectroscopy over the temperature range 25-93° C. The resulting data were analyzed by Van't Hoff plots (FIG. 7). […] In this case the major cis isomer becomes increasingly favored as the temperature decreases. Values for ΔH^o and ΔS^o were calculated from linear least-squares fits of these plots (Table 6).
(§1) Thermodynamics. The equilibrium constants for the interconversion of the cis and trans isomers of 3-6 were determined by measuring the peak area of the 1H resonance for the two isomers. Peak areas were measured with the program Spinworks 2.5. Experiments were conducted at 298-360 K. Equilibrium constants (Kt/c=trans/cis ratios) were calculated directly from the peak areas.

A short description of data set [2]: Kinetics of prolyl amide cis/trans isomerization by 1H-NMR inversion-magnetization transfer, Eyring plots. The settings on record: for Free energy of activation ΔG‡ cis to trans / Free energy of activation ΔG‡ trans to cis: at 298K, D2O; for Rate constant ktc (trans to cis): calculated from kct and Kt/c. Here is the method: Kinetics of cis-trans prolyl amide bond isomerization in peptide mimics 3-6. The kinetics of cis/trans isomerization for compounds 3-6 were determined by ^1H-NMR spectroscopy inversion-magnetization transfer experiments (Perrin and Dwyer, 1990; Reimer et al., 1998) in D2O (Table 4). Because the rates for cis/trans isomerization are extremely slow in protic solvents, the inventors performed these experiments at elevated temperatures (Stein, 1993). At 83° C., the trans-to-cis rate constants of isomerizations (ktc) follows the order 4<5≈6<3. A 200-fold rate difference is observed for diastereomeric amides 3 and 4.
The effects of temperature on kct and ktc were analyzed by Eyring plots (FIG. 6) (Eyring, 1935). The values for ΔH^‡ and ΔS^‡ (Table 5) were calculated from linear least squares fits of the data in these plots (Eyring, 1935). […] However, the activation enthalpy is partially compensated by a higher activation entropy.
Inversion-magnetization transfer NMR experiments were performed on Bruker AMX500 spectrometer equipped with selective excitation units, and ^1H and broadband heteronuclear probes. Samples of 3-6 were prepared at a concentration of 0.01 M in D2O. The rate of prolyl peptide bond isomerization can not be detected by this method at room temperature. Experiments were therefore conducted at elevated temperature at 356 K. Temperature settings of the spectrometer were calibrated to within 1° C. by reference to a glycol standard.

A short description of data set [3]: Prolyl amide trans/cis ratio by 1H-NMR integration (peptide mimics 3-8). The settings on record: for Experimental distribution of cis conformers / Experimental distribution of trans conformers / Cis population of prolyl N-acetyl N′-methylamides: in D2O; for Experimental distribution of cis conformers / Experimental distribution of trans conformers: 1H-NMR integration; for Trans/cis ratio Kt/c / cis % isomer: in water, 500 MHz NMR at 25 °C; for Trans/cis ratio Kt/c: ±0.04; for cis % isomer / Cis population of prolyl N-acetyl N′-methylamides: ±3%. The protocol:
For each compound 3-6, the ratio of trans/cis isomers was calculated by integrating and averaging as many well-resolved proton signals as possible in the ^1H-NMR spectra (Table 2) (taylor et al., 2003).
The cis population of peptide mimics 7 and 8 are presented in Table 3 together with previously published data for proline analog 9 (Beausoleil and Lubell, 1996), 5-methylproline analogs 10 and 11 (Delaney and Madison, 1982) and 5-tent-butylproline analogs 12 and 13 (Beausoleil and Lubell, 1996).
as §1

A short description of data set [4]: Cis population and equilibrium constant Kc/t of GlcTProLysC peptide mimics by 1H NMR, pH effect. To be noted: HCl salt; for Equilibrium constant Kc/t / Cis population: in D2O; for Equilibrium constant Kc/t: ±0.04; for Cis population: ±3%; for Kc/t: D2O. Here is the method:
The equilibrium constants Kc/t for compounds 3-22 to 3-25 are shown in Table 15 and were determined by integrating and averaging as many distinct proton signals as possible for both the major and minor isomers in the ^1H NMR spectra (Taylor et al., 2003). […] It appears that the stereochemistry at C-5′ has a profound effect on the equilibrium of isomerization. Also, the cis prolyl amide population in esters 3-22 and 3-23, was generally lower than N′-methylamides 3-24 and 3-25. Taylor and co-workers have proposed that the trans conformation of esters is stabilized relative to amides as a result of increased electron donation from the oxygen lone pair of the N-terminal amide carbonyl group to the antibonding orbital of the prolyl C-terminal carbonyl group (FIG. 20) (Taylor et al., 2003).
Effect of pH. Since compound 3-22 to 3-25 have an ionizable amino group, the inventors were interested to study the influence of the ionization state on Kt/c. […] The inventors selected three buffer ranges: pH=2.6, 7.4 and 12.4, to examine the pH effect on the isomerization of 3-24 and 3-25 (Table 16).
Measurement of equilibrium constant: The calculation was based on the integration of well-resolved peaks of the γ-protons, N-terminal methyl group and α-proton in ^1H NMR.

“And” between values parts separate entries of the source, which are not always exact repeats. Equal values may be shown once.

As for `COC(=O)C1N(C(C)=O)C(CO)CC12OC(CO)C(O)C(O)C2O` [Compound 3, (1S)-2,3,4,6-Tetrahydroxy-1′-N-acetyl-5′(S)-hydroxymethylene-spiro[1,5-anhydro-D-glucitol-1,3′-L-prolinemethyl ester]], in data set [1], the “ΔG° (298K) of isomerization” value is given as −0.80 ± 0.13, the “ΔH° of isomerization” value was -1.67 ± 0.06 kcal/mol and the “ΔS° of isomerization” value is on record as −2.93 ± 0.20 cal/mol•K. For the same compound, in data set [2] (D2O at 83 °C), the “Rate constant kct (cis to trans)” value turned out to be 0.18 ± 0.01 s⁻¹ and the “Rate constant ktc (trans to cis)” value is 0.08 ± 0.004 s⁻¹. Moreover, in data set [2] (Eyring plots in D2O), the “Activation enthalpy ΔH‡ cis to trans” value is 26.1 kcal/mol, the “Activation enthalpy ΔH‡ trans to cis” value came out at 26.4 kcal/mol, the “Activation entropy ΔS‡ cis to trans” value was 11.1 cal/mol.K and the “Activation entropy ΔS‡ trans to cis” value was found to be 10.2 cal/mol.K. Moreover, in data set [2] (Eyring plots in D2O), the “Increase in activation enthalpy compared to compounds 4-6” value fell in the range of 3.9 to 6.8 kcal/mol. Also, in data set [2], the “Free energy of activation ΔG‡ cis to trans” value is given as 22.8 kcal/mol and the “Free energy of activation ΔG‡ trans to cis” value worked out at 23.4 kcal/mol. For the same compound, in data set [3], the “Experimental distribution of cis conformers” value came to 23±3%, the “Experimental distribution of trans conformers” value is recorded as 77 ± 3%, the “Trans/cis ratio Kt/c” value is 3.35 and the cis % isomer turned out to be 23%.

Turning to `COC(=O)C1N(C(C)=O)C(CO)CC12OC(CN)C(O)C(O)C2O.Cl` [Compound 3-22, (1S)-6-Amino-6-deoxy-1′-N-acetyl-5′(R)-hydroxymethylene-spiro[1,5-anhydro-D-glucitol-1,3′-L-prolinemethyl ester] HCl salt], in data set [4], the “Equilibrium constant Kc/t” value was determined as 1.22 and the Cis population is reported as 55%.

With `COC(=O)C1N(C(C)=O)C(CO)CC12OC(CN)C(O)C(O)C2O.Cl` [Compound 3-23, (1S)-6-Amino-6-deoxy-1′-N-acetyl-5′(S)-hydroxymethylene-spiro[1,5-anhydro-D-glucitol-1,3′-L-prolinemethyl ester] HCl salt], in data set [4], the “Equilibrium constant Kc/t” value is 0.23 and the Cis population turned out to be 19%.

For the compound `CNC(=O)C1N(C(C)=O)C(CO)CC12OC(CN)C(O)C(O)C2O.Cl` [Compound 3-24, (1S)-6-Amino-6-deoxy-1′-N-acetyl-5′(R)-hydroxymethylene-spiro[1,5-anhydro-D-glucitol-1,3′-L-prolinemethyl amide] HCl salt], the Kc/t is recorded as 3.03 in data set [4] (pD 2.6, ±0.04); 3.03 in data set [4] (pD 7.4, ±0.04); 2.70 in data set [4] (pD 12.4, ±0.04). In data set [4], the “Equilibrium constant Kc/t” value was determined as 3.03. In addition, the Cis population in data set [4] was 75%.

In the case of `CNC(=O)C1N(C(C)=O)C(CO)CC12OC(CN)C(O)C(O)C2O.Cl` [Compound 3-25, (1S)-6-Amino-6-deoxy-1′-N-acetyl-5′(S)-hydroxymethylene-spiro[1,5-anhydro-D-glucitol-1,3′-L-prolinemethyl amide] HCl salt], the Kc/t is 0.61 in data set [4] (pD 2.6, ±0.04); 0.56 in data set [4] (pD 7.4, ±0.04); 0.61 in data set [4] (pD 12.4, ±0.04). For the same compound, the “Equilibrium constant Kc/t” value in data set [4] turned out to be 0.56. Moreover, the Cis population in data set [4] is on record as 36%.

As for `COC(=O)C1N(C(C)=O)C(CO)CC12OC(CO)C(O)C(O)C2O` [Compound 4, (1S)-2,3,4,6-Tetrahydroxy-1′-N-acetyl-5′(R)-hydroxymethylene-spiro[1,5-anhydro-D-glucitol-1,3′-L-prolinemethyl ester]], in data set [1], the “ΔG° (298K) of isomerization” value is 0.19 ± 0.11, the “ΔH° of isomerization” value was 0.50 ± 0.06 kcal/mol and the “ΔS° of isomerization” value came to 1.05 ± 0.16 cal/mol•K. For the same compound, in data set [2] (D2O at 83 °C), the “Rate acceleration for kct compared to parent compounds 5 and 6” value is given as ~6 fold; the “Rate acceleration for ktc compared to parent compounds 5 and 6” value was ~20 fold; the “Rate constant kct (cis to trans)” value was found to be 16.19 ± 1.19 s⁻¹; the “Rate constant ktc (trans to cis)” value was 19.82 ± 1.45 s⁻¹. Also, in data set [2] (Eyring plots in D2O), the “Activation enthalpy ΔH‡ cis to trans” value stood at 19.8 kcal/mol, the “Activation enthalpy ΔH‡ trans to cis” value was 19.6 kcal/mol, the “Activation entropy ΔS‡ cis to trans” value is 2.2 cal/mol.K and the “Activation entropy ΔS‡ trans to cis” value came to 1.9 cal/mol.K. Besides, in data set [2], the “Free energy of activation ΔG‡ cis to trans” value was 19.1 kcal/mol and the “Free energy of activation ΔG‡ trans to cis” value is given as 19.0 kcal/mol. Also, in data set [3], the “Experimental distribution of cis conformers” value was 53±3%, the “Experimental distribution of trans conformers” value was found to be 47 ± 3%, the “Trans/cis ratio Kt/c” value is reported as 0.88 and the cis % isomer turned out to be 53%.

Regarding `COC(=O)[C@@H]1[C@@H](O)CCN1C(C)=O` [Compound 5, N-acetyl-3(S)-hydroxy-L-proline methyl ester, reference compound], in data set [1], the “ΔG° (298K) of isomerization” value was −0.95 ± 0.05, the “ΔH° of isomerization” value is -1.09 ± 0.03 kcal/mol and the “ΔS° of isomerization” value is −0.48 ± 0.08 cal/mol•K. Further, in data set [2] (D2O at 83 °C), the “Rate constant kct (cis to trans)” value came out at 2.63 ± 0.28 s⁻¹ and the “Rate constant ktc (trans to cis)” value was 1.02 ± 0.09 s⁻¹. Besides, in data set [2] (Eyring plots in D2O), the “Activation enthalpy ΔH‡ cis to trans” value is on record as 21.6 kcal/mol, the “Activation enthalpy ΔH‡ trans to cis” value was 21.5 kcal/mol, the “Activation entropy ΔS‡ cis to trans” value was found to be 3.6 cal/mol.K and the “Activation entropy ΔS‡ trans to cis” value came to 1.6 cal/mol.K. Further, in data set [2], the “Free energy of activation ΔG‡ cis to trans” value is reported as 20.5 kcal/mol and the “Free energy of activation ΔG‡ trans to cis” value was 21.1 kcal/mol. In data set [3], the “Trans/cis ratio Kt/c” value amounted to 4.88 and the cis % isomer worked out at 17%.

Consider `COC(=O)[C@@H]1CCCN1C(C)=O` [Compound 6, N-acetyl-L-proline methyl ester, reference compound], for which, in data set [1], the “ΔG° (298K) of isomerization” value is reported as −1.01 ± 0.08, the “ΔH° of isomerization” value was -1.21 ± 0.04 kcal/mol and the “ΔS° of isomerization” value was −0.71 ± 0.12 cal/mol•K. In data set [2] (D2O at 83 °C), the “Rate constant kct (cis to trans)” value is 2.95 ± 0.12 s⁻¹ and the “Rate constant ktc (trans to cis)” value was 0.82 ± 0.04 s⁻¹. In addition, in data set [2] (Eyring plots in D2O), the “Activation enthalpy ΔH‡ cis to trans” value is 21.9 kcal/mol, the “Activation enthalpy ΔH‡ trans to cis” value came out at 22.5 kcal/mol, the “Activation entropy ΔS‡ cis to trans” value amounted to 4.8 cal/mol.K and the “Activation entropy ΔS‡ trans to cis” value came out at 3.9 cal/mol.K. In addition, in data set [2], the “Free energy of activation ΔG‡ cis to trans” value amounted to 20.5 kcal/mol and the “Free energy of activation ΔG‡ trans to cis” value came out at 21.4 kcal/mol. Moreover, in data set [3], the “Trans/cis ratio Kt/c” value came to 6.14 and the cis % isomer amounted to 14%.

For the compound `CNC(=O)C1N(C(C)=O)C(CO)CC12OC(CO)C(O)C(O)C2O` [Compound 7, (1S)-2,3,4,6-Tetrahydroxy-1′-N-acetyl-5′(S)-hydroxymethylene-spiro[1,5-anhydro-D-glucitol-1,3′-L-prolinemethylamide]], in data set [3], the “Cis population of prolyl N-acetyl N′-methylamides” value is 38% and 38±3%.

In the case of `CNC(=O)C1N(C(C)=O)C(CO)CC12OC(CO)C(O)C(O)C2O` [Compound 8, (1S)-2,3,4,6-tetrahydroxy-1′-N-acetyl-5′(R)-hydroxymethylene-spiro[1,5-anhydro-D-glucitol-1,3′-L-prolinemethylamide]], in data set [3], the “Cis population of prolyl N-acetyl N′-methylamides” value is 74% and 74±3%.
